Values after ≈ are worked out from the molar mass of the structure shown.
Tests used:
Assay type in all cases: cell-based
ESCHERICHIA COLI JUHL = settings: E. coli JUHL; BHI agar; unit assumed
[1] = test system: STREPTOCOCCUS PYOGENES EES61; assay: In vitro antibacterial activity, MIC, BHI agar dilution; settings: S. pyogenes EES61, unit assumed
PSEUDOMONAS CEPACIA 296I = assay: as above; settings: P. cepacia 296I, unit assumed
[2] = test system: PSEUDOMONAS AERUGINOSA K799/WT; assay: as above; settings: P. aeruginosa K799/WT, unit assumed
ESCHERICHIA COLI SS = assay: as above; settings: E. coli SS, unit assumed
[3] = test system: STREPTOCOCCUS BOVIS A-5169; assay: as above; settings: S. bovis A-5169, unit assumed
[4] = test system: STAPHYLOCOCCUS AUREUS 1775; assay: as above; settings: S. aureus 1775, unit assumed
[5] = test system: MYCOBACTERIUM SMEGMATIS ATCC 114; assay: as above; settings: M. smegmatis ATCC 114, unit assumed
[6] = test system: STAPHYLOCOCCUS AUREUS A-5278; assay: as above; settings: S. aureus A-5278, unit assumed
H. Influenza Dill AMP R = assay: In vitro antibacterial activity against H. Influenza Dill AMP R, MIC; settings: separate assay, unit assumed
Method: Representative compounds of the present invention were assayed in vitro for antibacterial activity as follows: Twelve petri dishes containing successive aqueous dilutions of the test compound mixed with 10 mL of sterilized Brain Heart Infusion (BHI) agar (Difco 0418-01-5) were prepared. Each plate was inoculated with 1:100 (or 1:10 for slow-growing strains, such as Micrococcus and Streptococcus) dilutions of up to 32 different microorganisms, using a Steers replicator block. The inoculated plates were incubated at 35-37° C. for 20 to 24 hours. In addition, a control plate, using BHI agar containing no test compound, was prepared and incubated at the beginning and end of each test.
After incubation, each plate was visually inspected. The minimum inhibitory concentration (MIC) was defmed as the lowest concentration of drug yielding no growth, a slight haze, or sparsely isolated colonies on the inoculum spot as compared to the growth control.
In a separate assay representative compounds of the invention were assayed in vitro for antibacterial activity against the H. Influenza Dill AMP R strain, according to the protocol described above.

[7] = test system: PSEUDOMONAS AERUGINOSA DPHD-2862; assay: In vitro antibacterial activity, MIC, BHI agar dilution; settings: P. aeruginosa DPHD-2862, unit assumed
[8] = test system: ACINETOBACTER CALCOACETICUS CMX 669; assay: as above; settings: A. calcoaceticus CMX 669, unit assumed
[9] = test system: PSEUDOMONAS AERUGINOSA DPHD-5263; assay: as above; settings: P. aeruginosa DPHD-5263, unit assumed
[10] = test system: STREPTOCOCCUS PYOGENES 930; assay: as above; settings: S. pyogenes 930, unit assumed
[11] = test system: STAPHYLOCOCCUS AUREUS A5177; assay: as above; settings: S. aureus A5177, unit assumed
ESCHERICHIA COLI KNK 437 = settings: E. coli KNK 437; BHI agar; unit assumed
[12] = test system: PSEUDOMONAS AERUGINOSA K799/61; assay: In vitro antibacterial activity, MIC, BHI agar dilution; settings: P. aeruginosa K799/61, unit assumed
[13] = test system: STAPHYLOCOCCUS AUREUS CMX 553; assay: as above; settings: S. aureus CMX 553, unit assumed
[14] = test system: STAPHYLOCOCCUS EPIDERMIDIS 3519; settings: S. epidermidis 3519; BHI agar; unit assumed
EN[…] ATCC 8043 = assay: In vitro antibacterial activity, MIC, BHI agar dilution; settings: E. faecium ATCC 8043, unit assumed
Summary of the method: (§1)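 BHI agar dilution, 12 plates; inoculum 1:100 (1:10 slow-growing strains), Steers replicator; 35-37° C, 20-24 h. MIC = lowest conc. with no growth/slight haze/sparse colonies vs growth control, visual read. Erythromycin A reference plate.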

M[…] ATCC 4698 = assay: as above; settings: M. luteus ATCC 4698, unit assumed
Summary of the method: as §1

STR[…] 508 = assay: as above; settings: S. agalactiae CMX 508, unit assumed
Summary of the method: as §1

M[…] ATCC 9341 = assay: as above; settings: M. luteus ATCC 9341, unit assumed
Summary of the method: as §1

[15] = test system: KLEBSIELLA PNEUMONIAE ATCC 8045; assay: as above; settings: K. pneumoniae ATCC 8045, unit assumed
[16] = test system: STAPHYLOCOCCUS AUREUS CMX 642A; assay: as above; settings: S. aureus CMX 642A, unit assumed
CANDIDA ALBICANS CCH 442 = assay: as above; settings: C. albicans CCH 442, unit assumed
[17] = test system: STAPHYLOCOCCUS AUREUS NCTC10649M; assay: as above; settings: S. aureus NCTC10649M, unit assumed
ESCHERICHIA COLI DC-2 = assay: as above; settings: E. coli DC-2, unit assumed
[18] = test system: ENTEROBACTER AEROGENES ATCC 13048; assay: as above; settings: E. aerogenes ATCC 13048, unit assumed
[19] = test system: PROVIDENCIA STUARTII CMX 640; settings: P. stuartii CMX 640; BHI agar; unit assumed
ESCHERICHIA COLI H560 = assay: In vitro antibacterial activity, MIC, BHI agar dilution; settings: E. coli H560, unit assumed
[20] = test system: PSEUDOMONAS AERUGINOSA 5007; assay: as above; settings: P. aeruginosa 5007, unit assumed
[21] = test system: PSEUDOMONAS AERUGINOSA BMH10; assay: as above; settings: P. aeruginosa BMH10, unit assumed
[22] = test system: STAPHYLOCOCCUS AUREUS ATCC 6538P; assay: as above; settings: S. aureus ATCC 6538P, 35-37° C., 20 to 24 hours, unit assumed
[23] = test system: STREPTOCOCCUS PYOGENES PIU 2548; assay: as above; settings: S. pyogenes PIU 2548, unit assumed

Structure (SMILES)	MIC (ESCHERICHIA COLI JUHL) [µg/mL]	MIC [1] [µg/mL]	MIC (PSEUDOMONAS CEPACIA 296I) [µg/mL]	MIC [2] [µg/mL]	MIC (ESCHERICHIA COLI SS) [µg/mL]	MIC [3] [µg/mL]	MIC [4] [µg/mL]	MIC [5] [µg/mL]	MIC [6] [µg/mL]	MIC (H. Influenza Dill AMP R) [µg/mL]	MIC [7] [µg/mL]	MIC [8] [µg/mL]	MIC [9] [µg/mL]	MIC [10] [µg/mL]	MIC [11] [µg/mL]	MIC (ESCHERICHIA COLI KNK 437) [µg/mL]	MIC [12] [µg/mL]	MIC [13] [µg/mL]	MIC [14] [µg/mL]	MIC (EN[…] ATCC 8043) [µg/mL]	other results
CC[C@H]1OC(=O)[C@H](C)C(=O)[C@H](C)[C@@H](O[C@@H]2O[C@H](C)C[C@H](N(C)C)[C@H]2O)[C@](C)(OC)C[C@@H](C)C2=NC3CN(C(C)=O)CC3N3C(=O)O[C@@]1(C)[C@H]3[C@H]2C (stereo partly shown) [Example 125]	> 100	0.1 (≈ 0.139 µM)	> 100	> 100	0.78 (≈ 1.08 µM)	0.2 (≈ 0.277 µM)	> 100	50 (≈ 69.4 µM)	> 100	128 (≈ 178 µM)	> 100	100 (≈ 139 µM)	> 100	> 100	6.2 (≈ 8.6 µM)	> 100	6.2 (≈ 8.6 µM)	6.2 (≈ 8.6 µM)	6.2 (≈ 8.6 µM)	1.56 (≈ 2.16 µM)	MIC (M[…] ATCC 4698): 6.2 µg/mL (≈ 8.6 µM); MIC (STR[…] 508): 0.39 µg/mL (≈ 0.541 µM); MIC (M[…] ATCC 9341): 0.78 µg/mL (≈ 1.08 µM); MIC [15]: > 100 µg/mL; MIC [16]: 12.5 µg/mL (≈ 17.3 µM); MIC (CANDIDA ALBICANS CCH 442): > 100 µg/mL; MIC [17]: 6.2 µg/mL (≈ 8.6 µM); MIC (ESCHERICHIA COLI DC-2): > 100 µg/mL; MIC [18]: > 100 µg/mL; MIC [19]: > 100 µg/mL; MIC (ESCHERICHIA COLI H560): > 100 µg/mL; MIC [20]: > 100 µg/mL; MIC [21]: > 100 µg/mL
CC[C@H]1OC(=O)[C@H](C)C(=O)[C@H](C)[C@@H](O[C@@H]2O[C@H](C)C[C@H](N(C)C)[C@H]2O)[C@](C)(OC)C[C@@H](C)C2=NC3CN(S(=O)(=O)Cc4ccccc4[N+](=O)[O-])CC3N3C(=O)O[C@@]1(C)[C@H]3[C@H]2C (stereo partly shown) [Example 123]	> 100	0.1 (≈ 0.114 µM)	> 100	> 100	6.2 (≈ 7.06 µM)	0.1 (≈ 0.114 µM)	> 100	12.5 (≈ 14.2 µM)	> 100	128 (≈ 146 µM)	> 100	> 100	> 100	> 100	1.56 (≈ 1.78 µM)	> 100	25 (≈ 28.5 µM)	3.1 (≈ 3.53 µM)	3.1 (≈ 3.53 µM)	0.39 (≈ 0.444 µM)	MIC [22]: 1.56 µg/mL (≈ 1.78 µM); MIC (M[…] ATCC 4698): 1.56 µg/mL (≈ 1.78 µM); MIC (STR[…] 508): 0.1 µg/mL (≈ 0.114 µM); MIC (M[…] ATCC 9341): 0.39 µg/mL (≈ 0.444 µM); MIC [15]: > 100 µg/mL; MIC [16]: 3.1 µg/mL (≈ 3.53 µM); MIC (CANDIDA ALBICANS CCH 442): > 100 µg/mL; MIC [23]: 3.1 µg/mL (≈ 3.53 µM); MIC [17]: 3.1 µg/mL (≈ 3.53 µM); MIC (ESCHERICHIA COLI DC-2): > 100 µg/mL; MIC [18]: > 100 µg/mL; MIC [19]: > 100 µg/mL; MIC (ESCHERICHIA COLI H560): > 100 µg/mL; MIC [20]: > 100 µg/mL; MIC [21]: > 100 µg/mL
CCC1OC(=O)C(C)C(=O)C(C)C(OC2OC(C)CC(N(C)C)C2O)C(C)(OC)CC(C)C2=NCC(CSc3ccccc3)(CN(C)C)N3C(=O)OC1(C)C3C2C (stereo not shown) [Example 135]	> 100	0.2 (≈ 0.245 µM)	> 100	> 100	1.56 (≈ 1.91 µM)	0.1 (≈ 0.122 µM)	> 100	1.56 (≈ 1.91 µM)	> 100	64 (≈ 78.3 µM)	> 100	> 100	> 100	> 100	1.56 (≈ 1.91 µM)	> 100	6.2 (≈ 7.59 µM)	3.1 (≈ 3.79 µM)	3.1 (≈ 3.79 µM)	0.39 (≈ 0.477 µM)	MIC [22]: 1.56 µg/mL (≈ 1.91 µM); MIC (M[…] ATCC 4698): 1.56 µg/mL (≈ 1.91 µM); MIC (STR[…] 508): 0.2 µg/mL (≈ 0.245 µM); MIC (M[…] ATCC 9341): 0.2 µg/mL (≈ 0.245 µM); MIC [15]: > 100 µg/mL; MIC [16]: 3.1 µg/mL (≈ 3.79 µM); MIC (CANDIDA ALBICANS CCH 442): > 100 µg/mL; MIC [23]: 1.56 µg/mL (≈ 1.91 µM); MIC [17]: 3.1 µg/mL (≈ 3.79 µM); MIC (ESCHERICHIA COLI DC-2): > 100 µg/mL; MIC [18]: > 100 µg/mL; MIC [19]: > 100 µg/mL; MIC (ESCHERICHIA COLI H560): > 100 µg/mL; MIC [20]: > 100 µg/mL; MIC [21]: > 100 µg/mL
